In patent US10010535B2, “Desferrithiocin analogs and uses thereof” (University of Florida Research Foundation, Incorporated, priority 2013, dated 2018):
Like-named read-outs stand apart in the source and are kept apart here.

Assays:
[1] = Octanol-water partition, shake flask (log Papp); assay type: physicochemical; conditions: pH 7.4, Tris buffer
Protocol: The partition values between octanol and water (at pH 7.4, Tris buffer) were determined using a “shake flask” direct method of measuring log Papp values (Sangster et al., Octanol-Water Partition Coefficients: Fundamentals and Physical Chemistry; John Wiley and Sons: West Sussex, England, 1997; Vol. 2). The fraction of compound in the octanol is then expressed as log Papp. […] This is likely due to the presence of the aromatic nitrogen, a moderately good hydrogen bond accepter, on the DFT analogs.

urinary Kim-1 excretion [2] = tested on: urinary Kim-1 excretion
Protocol: The compounds were administered to the rats po as their monosodium salts, prepared as described above, twice daily at a dose of 237 μmol/kg/dose (474 μmol/kg/d) for up to 7 d. The studies were performed on rats with normal iron stores. The rats were fasted overnight and were given the first dose of the compound first thing in the morning. The rats were fed ˜3 h post-dose and had access to food for ˜5 h before being fasted overnight.
The rats were housed in individual metabolic cages. […] A baseline (day 0) urine sample was collected and assessed for its Kim-1 content; each animal served as its own control. The urine was collected chilled as previously described (Bergeron et al., “Desferrithiocin Analog Iron Chelators: Iron Clearing Efficiency, Tissue Distribution, and Renal Toxicity.” Biometals, 2011, 24, 239-258).
The chilled urine was collected, vortexed, and warmed to room temperature; any sediment in the samples was allowed to settle. Kim-1 content was assessed using a Rat Kim-1 Rapid Test Kit according to the manufacturer's instructions. The result was read using a ReaScan Test Reader. […] Data are presented as the mean±the standard error of the mean; p-values were generated via a one-tailed Student's t-test in which the inequality of variances was assumed; and a p-value of <0.05 was considered significant.
Assessment of chelator-induced impaired renal function has traditionally relied on the detection of a rise in blood urea nitrogen (BUN) and/or serum creatinine (SCr). However, because of the functional reserve of the kidney, these parameters are often unreliable indicators of acute kidney injury; the ultimate answer requires histopathology. […] BioAssay Works has recently developed RenaStick, a direct lateral flow immunochromato-graphic assay, which allows for the rapid detection (less than 30 minutes) and quantitation of urinary Kim-1 (rat) or KIM-1 (human) excretion (Vaidya et al., “A Rapid Urine Test for Early Detection of Kidney Injury.” Kidney. Int. 2009, 76, 108-114). […] The studies were performed on rats with normal iron stores; each animal served as their own control.

[3] = Compound-plasma binding, primate plasma; assay type: in vitro ADME; conditions: 37° C., 4 h, 3,000 MWCO filter
Source text: (§1) Each sample was then passed through a Millipore Amicon Ultra regenerated cellulose filter (3,000 MWCO).

[4] = Job's plot stoichiometry of Fe(III) complexes; assay type: binding; conditions: [DFT analog]+[Fe(III)]=1.0 mM, Tris-HCl pH 7.4; theoretical 0.667 for 2:1
Protocol: Solutions containing DFT analog/Fe(III) at different ratios were prepared such that [DFT analog]+[Fe(III)]=1.0 mM in Tris-HCl buffer at pH 7.4. The theoretical mole fraction maximum for a 2:1 DFT analog:Fe complex is 0.667 (indicated by an arrow).
In each instance, the DFT analogs formed 2:1 complexes with Fe(III). […] A 100 mM Tris HCl buffer was used to maintain the pH at 7.4. Solutions containing different DFT analog/Fe(III) ratios were prepared by mixing appropriate volumes of 1.0 mM DFT analog solution and 1.0 mM Fe(III)-nitriloacetate (NTA) in Tris-HCl buffer. The 1.0 mM Fe(III)-NTA solution was prepared immediately prior to use by dilution of a 41.6 mM Fe(III)-NTA stock solution with the Tris HCl buffer, whereas the DFT analog stock solution was prepared by dissolving the DFT analog as its monosodium salt in Tris HCl buffer at pH 7.4. The Fe(III)-NTA stock solution was prepared by mixing equal volumes of […] of FeCl3 and 180 mM trisodium NTA. The iron content of the Fe(III)-NTA solution was verified by atomic absorption spectrophotometry (AAS).

[5] = Compound-plasma binding, rodent plasma; assay type: in vitro ADME; conditions: 37° C., 4 h, 3,000 MWCO filter
Source text: as §1

[6] = administered twice daily; cited from earlier work
urinary Kim-1 excretion [7] = conditions: cited from earlier work; for urinary Kim-1: 237 μmol/kg twice daily
[8] = po twice daily 237 μmol/kg/dose × 7 d
[9] = day 8, after 237 μmol/kg twice daily × 7 d

SMILES | LogPapp [1] | survival of dosing period (urinary Kim-1 excretion [2]; po twice daily 237 μmol/kg/dose (474 μmol/kg/d), up to 7 d, rats with normal iron stores) | BUN and SCr (urinary Kim-1 excretion [2]; [8]) | urinary Kim-1 excretion versus baseline (day 0) (urinary Kim-1 excretion [2]; [8]) | renal toxicity (Kim-1, BUN, SCr), summary (urinary Kim-1 excretion [2]; rat, in vivo) | binding of the compound to plasma [3] | observed mole fraction maximum in Job's plot [4] | binding of the compound to plasma [5] | nephrotoxicity in patients [6] | urinary Kim-1 (urinary Kim-1 excretion [7]; after three days) [ng/kg/24 h] | BUN (urinary Kim-1 excretion [7]; [9]) [mg/dL] | SCr (urinary Kim-1 excretion [7]; [9]) [mg/dL] | urinary Kim-1 (urinary Kim-1 excretion [7]; end of the 7 d dosing period) [ng/kg/24 h] | renal toxicity (Kim-1, BUN, SCr), summary (urinary Kim-1 excretion [7]; rats)
COCCOCCOc1ccnc(C2=N[C@@](C)(C(=O)O)CS2)c1O [I-3, (S)-4,5-Dihydro-2-[3-hydroxy-4-(3,6-dioxaheptyloxy)-2-pyridinyl]-4-methyl-4-thiazolecarboxylic Acid] | −1.38 | All of the animals survived the compound dosing regimen | well within the normal range | remained within error of that of the baseline (day 0) levels | little to no impact on renal function | little, if any, binding | 0.677 | little, if any, binding | – | – | – | – | – | –
C[C@]1(C(=O)O)CSC(c2ccc(O)cc2O)=N1 [compound 3] | −1.05 | – | – | – | – | – | – | – | induced proximal tubule nephrotoxicity | 69±47 | 32 ± 13 | 1.3 ± 1.0 | 189±187 | some nephrotoxicity
